Results on 22 compounds are retold here after patent US20210261512A1, “NOVEL COMPOUNDS” (INFLAZOME LIMITED, priority 2018, published 2021).

Each structure is given as a SMILES string. Bounds are passed on as bounds.

Experiment [1] concerns the target T1, NLRP3 (Homo sapiens, UniProt Q96P20). The experiment in a line: Human whole blood IL1β release assay. Particulars: LPS 1 μg/ml, nigericin 10 μM, IL-1β AlphaLisa, 10 μM top dose (Example 2: top dose of 30 μM), read-out: HWB IC50. The format is cell-based. Here is the method: For systemic delivery, the ability to inhibit NLRP3 when the compounds are present within the bloodstream is of great importance. For this reason, the NLRP3 inhibitory activity of a number of compounds in human whole blood was investigated in accordance with the following protocol.
Human whole blood in sodium-heparin or lithium-heparin tubes was obtained from healthy donors from a volunteer donor panel. • 1. Plate out 80 μl of whole blood containing 1 μg/ml of LPS in 96-well, clear bottom cell culture plate (Corning #3585) • 2. Add 10 μl compound (8 points half-log dilution with 10 μM top dose, unless stated otherwise) or vehicle (DMSO 0.1% FAC) to the appropriate wells • 3. Incubate for 3 hrs at 37° C., 5% CO2 • 4. Add 10 μl nigericin (Sigma #N7143) (10 μM FAC) to all wells • 5. Incubate for 1 hr at 37° C., 5% CO2 • 6. At the end of the incubation period, spin plates at 300×g for 5 mins to pellet cells and remove 20 μl of supernatant and add to 96-well v-bottom plates for IL-1β analysis (note: these plates containing the supernatants can be stored at −80° C. to be analysed at a later date) • 7. IL-1β was measured according to the manufacturer protocol (Perkin Elmer-AlphaLisa IL-1 Kit AL220F-5000) • 8. IC50 data is fitted to a non-linear regression equation (log inhibitor vs response-variable slope 4-parameters)
Background: Bead proximity is the source of the signal in Alpha formats.

Experiment [2] addresses T1, NLRP3. Kind of experiment: THP-1 cells pyroptosis assay. The experiment is classed as cell-based. More on the design: Seed THP-1 cells (25,000 cells/well) containing 1.0 μg/ml LPS; host or cells: THP-1. Particulars: LPS 1.0 μg/ml, nigericin 5 μM, resazurin readout, 10 μM top dose (Example 2: top dose of 30 μM). The procedure, abridged: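 THP-1 cells (25,000/well) primed with 1 μg/ml LPS in serum-free RPMI, treated with compound (8-point dilution, 10 μM top unless stated; 0.1% DMSO) 3 h at 37°C, then nigericin 5 μM 1 h. Viability read by resazurin (100 μM, 1-2 h) fluorescence; IC50 from 4-parameter fit.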
For orientation: Alamar Blue is a resazurin reagent that responds to reducing activity.

T1 sequence (Q96P20 whole entry): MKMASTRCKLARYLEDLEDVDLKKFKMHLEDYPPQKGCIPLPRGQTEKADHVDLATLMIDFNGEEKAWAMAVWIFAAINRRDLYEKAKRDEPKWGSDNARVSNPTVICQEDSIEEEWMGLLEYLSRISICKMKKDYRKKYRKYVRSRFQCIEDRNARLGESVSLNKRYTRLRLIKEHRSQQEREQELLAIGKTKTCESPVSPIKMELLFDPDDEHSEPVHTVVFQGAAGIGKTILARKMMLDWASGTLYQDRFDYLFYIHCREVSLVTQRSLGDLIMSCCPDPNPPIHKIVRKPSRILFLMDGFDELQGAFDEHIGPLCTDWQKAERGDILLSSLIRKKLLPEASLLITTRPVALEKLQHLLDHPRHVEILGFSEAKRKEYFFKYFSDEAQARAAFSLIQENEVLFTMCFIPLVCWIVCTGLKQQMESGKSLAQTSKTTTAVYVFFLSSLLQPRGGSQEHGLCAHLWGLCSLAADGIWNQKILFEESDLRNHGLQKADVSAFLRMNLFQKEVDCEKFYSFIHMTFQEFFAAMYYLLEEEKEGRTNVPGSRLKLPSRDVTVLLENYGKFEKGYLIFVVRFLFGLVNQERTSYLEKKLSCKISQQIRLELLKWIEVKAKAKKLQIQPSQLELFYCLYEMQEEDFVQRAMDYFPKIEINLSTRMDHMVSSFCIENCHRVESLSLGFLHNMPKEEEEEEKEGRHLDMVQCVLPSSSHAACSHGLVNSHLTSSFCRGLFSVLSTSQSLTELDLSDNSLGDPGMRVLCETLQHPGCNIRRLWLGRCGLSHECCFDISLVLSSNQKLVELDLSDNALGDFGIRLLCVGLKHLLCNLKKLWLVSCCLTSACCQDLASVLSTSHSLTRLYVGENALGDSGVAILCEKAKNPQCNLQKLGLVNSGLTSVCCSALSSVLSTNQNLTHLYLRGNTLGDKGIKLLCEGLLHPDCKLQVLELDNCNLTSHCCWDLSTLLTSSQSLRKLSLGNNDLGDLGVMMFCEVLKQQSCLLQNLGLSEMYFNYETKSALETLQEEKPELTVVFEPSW

Broadly, the IC50 is the midpoint of a concentration-inhibition curve. Consider `O=S(=O)(c1nnc(Nc2c3c(cc4c2CCC4)CCC3)[nH]1)N1CC2(CCOCC2)C1` [Example 145, 5-(7-oxa-2-azaspiro[35]nonan-2-ylsulfonyl)-N-(1,2,3,5,6,7-hexahydro-s-indacen-4-yl)-4H-1,2,4-triazol-3-amine], for which the half-inhibitory concentration (IC50) in experiment [1] is at most 5 µM; in experiment [2], at most 1 µM.
Consider `O=S(=O)(c1nnc(Nc2c3c(cc4c2CCC4)CCC3)[nH]1)N1CC2(CCOC2)C1` [Example 146, 5-(6-oxa-2-azaspiro[3.4]octan-2-ylsulfonyl)-N-(1,2,3,5,6,7-hexahydro-s-indacen-4-yl)-4H-1,2,4-triazol-3-amine], for which the half-maximal inhibitory concentration (IC50) was at most 10 µM in experiment [1] and at most 5 µM in experiment [2].
The corresponding values for `CN(C)C[C@@H]1CCN(S(=O)(=O)c2nnc(Nc3c4c(cc5c3CCC5)CCC4)[nH]2)C1` [Example 147, (S)-5-((3-((dimethylamino)methyl)pyrrolidin-1-yl)sulfonyl)-N-(1,2,3,5,6,7-hexahydro-s-indacen-4-yl)-4H-1,2,4-triazol-3-amine] are at most 0.5 µM and at most 0.5 µM.
As to `CN(C)C[C@H]1CCN(S(=O)(=O)c2nnc(Nc3c4c(cc5c3CCC5)CCC4)[nH]2)C1` [Example 148, (R)-5-((3-((dimethylamino)methyl)pyrrolidin-1-yl)sulfonyl)-N-(1,2,3,5,6,7-hexahydro-s-indacen-4-yl)-4H-1,2,4-triazol-3-amine], the half-inhibitory concentration (IC50) in experiment [1] and in experiment [2] was at most 0.5 µM in each case.
Regarding `CN(C)CC1CN(S(=O)(=O)c2nnc(Nc3c4c(cc5c3CCC5)CCC4)[nH]2)CCO1` (centres unmarked) [Example 149, 5-((2-((dimethylamino)methyl)morpholino)sulfonyl)-N-(1,2,3,5,6,7-hexahydro-s-indacen-4-yl)-4H-1,2,4-triazol-3-amine], the results for the IC50 in experiment [1] and in experiment [2] were at most 5 µM and at most 1 µM, respectively.
For `O=S(=O)(c1nnc(Nc2c3c(cc4c2CCC4)CCC3)[nH]1)N1CC2(CNC2)C1` [Example 150, 5-(2,6-Diazaspiro[33]heptan-2-ylsulfonyl)-N-(1,2,3,5,6,7-hexahydro-s-indacen-4-yl)-4H-1,2,4-triazol-3-amine] the same measures were at most 5 µM and at most 5 µM.
For `CC(C)(O)C1CN(S(=O)(=O)c2nnc(Nc3c4c(cc5c3CCC5)CCC4)[nH]2)C1` [Example 151, 2-(1-((5-((1,2,3,5,6,7-hexahydro-s-indacen-4-yl)amino)-4H-1,2,4-triazol-3-yl)sulfonyl)azetidin-3-yl)propan-2-ol], the IC50 in experiment [1] and in experiment [2] was at most 5 µM each time.
In the case of `CC(C)c1cc(F)cc(-c2ccncc2)c1Oc1nnc(S(=O)(=O)N2CCC(CN(C)C)C2)[nH]1` (centres unmarked) [Example 152, 1-(1-((5-(4-fluoro-2-isopropyl-6-(pyridin-4-yl)phenoxy)-4H-1,2,4-triazol-3-yl)sulfonyl)pyrrolidin-3-yl)-N,N-dimethylmethanamine], the IC50 in experiment [1] and in experiment [2] was at most 5 µM each time.
As to `O=S(=O)(c1nnc(Nc2c3c(cc4c2CCC4)CCC3)[nH]1)c1ccccc1F` [Example 179, 5-((2-fluorophenyl)sulfonyl)-N-(1,2,3,5,6,7-hexahydro-s-indacen-4-yl)-4H-1,2,4-triazol-3-amine], the values for the IC50 in experiment [1] and in experiment [2] were at most 10 µM and at most 1 µM, respectively.
For the compound `COc1cc(-c2cc(C#N)c3c(c2Nc2nnc(S(=O)(=O)c4ccccc4)[nH]2)CCC3)ccn1` [Example 192, 6-(2-methoxypyridin-4-yl)-7-((5-(phenylsulfonyl)-4H-1,2,4-triazol-3-yl)amino)-2,3-dihydro-1H-indene-4-carbonitrile], the IC50 was at most 5 µM in experiment [1] and at most 1 µM in experiment [2].
The corresponding values for `[2H]C([2H])([2H])Oc1cc(-c2ccc3c(c2Nc2nnc(S(=O)(=O)N4CC5(CCN(C)C5)C4)[nH]2)CCO3)ccn1` [Example 195, N-(5-(2-(methoxy-d)pyridin-4-yl)-2,3-dihydrobenzofuran-4-yl)-5-((6-methyl-2,6-diazaspiro[3-4]octan-2-yl)sulfonyl)-4H-1,2,4-triazol-3-amine] are at most 0.5 µM and at most 0.5 µM.
Turning to `[2H]C([2H])([2H])Oc1cc(-c2ccc3c(c2Nc2nnc(S(=O)(=O)N4CC5(CCN(C)C5)C4)[nH]2)CCC3)ccn1` [Example 196, N-(5-(2-(methoxy-d)pyridin-4-yl)-2,3-dihydro-1H-inden-4-yl)-5-((6-methyl-2,6-diazaspiro[3.4]octan-2-yl)sulfonyl)-4H-1,2,4-triazol-3-amine], the IC50 in experiment [1] and in experiment [2] was at most 0.5 µM throughout.
On to `CC(C)c1cnn(-c2ccncc2)c1Nc1nnc(S(=O)(=O)N2CCC(N(C)C)CC2)[nH]1` [Example 197, 1-((5-((4-isopropyl-1-(pyridin-4-yl)-1H-pyrazol-5-yl)amino)-4H-1,2,4-triazol-3-yl)sulfonyl)-N,N-dimethylpiperidin-4-amine], for which the IC50 in experiment [1] and in experiment [2] was at most 0.5 µM in each case.
With `CN(C)C1CCN(S(=O)(=O)c2nnc(Nc3c(-c4ccnc(C5CC5)c4)ccc4c3CCC4)[nH]2)CC1` [Example 199, 1-((5-((5-(2-cyclopropylpyridin-4-yl)-2,3-dihydro-1H-inden-4-yl)amino)-4H-1,2,4-triazol-3-yl)sulfonyl)-N,N-dimethylpiperidin-4-amine], the IC50 in experiment [1] was at most 5 µM; in experiment [2], at most 0.5 µM.
For `CN1CCC12CCN(S(=O)(=O)c1nnc(Nc3c(-c4ccnc(OC(F)F)c4)ccc4c3CCC4)[nH]1)CC2` [Example 200, N-(5-(2-(difluoromethoxy)pyridin-4-yl)-2,3-dihydro-1H-inden-4-yl)-5-((1-methyl-1,7-diazaspiro[3.5]nonan-7-yl)sulfonyl)-4H-1,2,4-triazol-3-amine] the same measures were at most 5 µM and at most 0.5 µM.
For the compound `CN1CCCC12CCN(S(=O)(=O)c1nnc(Nc3c(-c4ccnc(OC(F)F)c4)ccc4c3CCC4)[nH]1)CC2` [Example 201, N-(5-(2-(difluoromethoxy)pyridin-4-yl)-2,3-dihydro-1H-inden-4-yl)-5-((1-methyl-1,8-diazaspiro[4.5]decan-8-yl)sulfonyl)-4H-1,2,4-triazol-3-amine], the IC50 in experiment [1] and in experiment [2] was at most 0.5 µM throughout.
Take `CN1CCC12CCN(S(=O)(=O)c1nnc(Nc3c(-c4ccnc(OC(F)F)c4)ccc4c3CCO4)[nH]1)CC2` [Example 202, N-(5-(2-(difluoromethoxy)pyridin-4-yl)-2,3-dihydrobenzofuran-4-yl)-5-((1-methyl-1,7-diazaspiro[3.5]nonan-7-yl)sulfonyl)-4H-1,2,4-triazol-3-amine]: the IC50 was at most 1 µM in experiment [1] and at most 0.5 µM in experiment [2].
On to `COc1cc(-c2ccc3c(c2Nc2nnc(S(=O)(=O)N4CCC5(CCN5C)CC4)[nH]2)CCO3)ccn1` [Example 203, N-(5-(2-methoxypyridin-4-yl)-2,3-dihydrobenzofuran-4-yl)-5-((1-methyl-1,7-diazaspiro[3.5]nonan-7-yl)sulfonyl)-4H-1,2,4-triazol-3-amine], for which the 50% inhibitory concentration (IC50) in experiment [1] is at most 5 µM; in experiment [2] it was at most 0.5 µM.
Take `COc1cc(-c2ccc3c(c2Nc2nnc(S(=O)(=O)N4CCC5(CCN5C)CC4)[nH]2)CCC3)ccn1` [Example 204, N-(5-(2-methoxypyridin-4-yl)-2,3-dihydro-1H-inden-4-yl)-5-((1-methyl-1,7-diazaspiro[3.5]nonan-7-yl)sulfonyl)-4H-1,2,4-triazol-3-amine]: the IC50 in experiment [1] was at most 1 µM; in experiment [2], at most 0.5 µM.
In the case of `CN1CCCC12CCN(S(=O)(=O)c1nnc(Nc3c(-c4ccnc(OC(F)F)c4)ccc4c3CCO4)[nH]1)CC2` [Example 210, N-(5-(2-(difluoromethoxy)pyridin-4-yl)-2,3-dihydrobenzofuran-4-yl)-5-((1-methyl-1,8-diazaspiro[4.5]decan-8-yl)sulfonyl)-4H-1,2,4-triazol-3-amine], the IC50 in experiment [1] was at most 5 µM; in experiment [2], at most 0.5 µM.
Turning to `COc1cc(-c2ccc3c(c2Nc2nnc(S(=O)(=O)N4CCC5(CCCN5C)CC4)[nH]2)CCO3)ccn1` [Example 211, N-(5-(2-methoxypyridin-4-yl)-2,3-dihydrobenzofuran-4-yl)-5-((1-methyl-1,8-diazaspiro[4.5]decan-8-yl)sulfonyl)-4H-1,2,4-triazol-3-amine], the figures for the IC50 in experiment [1] and in experiment [2] were at most 5 µM and at most 0.5 µM, respectively.
In the case of `Cc1cc(-c2ccc3c(c2Nc2nnc(S(=O)(=O)N4CCC(N(C)C)CC4)[nH]2)CCO3)ccn1` [Example 217, N,N-dimethyl-1-((5-((5-(2-methylpyridin-4-yl)-2,3-dihydrobenzofuran-4-yl)amino)-4H-1,2,4-triazol-3-yl)sulfonyl)piperidin-4-amine], the figures for the IC50 in experiment [1] and in experiment [2] were at most 10 µM and at most 5 µM, respectively.
